Measurements from patent US20200129570A1, “Specific Bacterial Species and Metabolite That Improves Immune Checkpoint Inhibitor Therapy Efficacy” (BOARD OF REGENTS, THE UNIVERSITY OF TEXAS SYSTEM, priority 2017, published 2020).
“And” between values parts separate entries of the source, which are not always exact repeats. Equal entries are not always repeated. “Also recorded” adds a separate entry of the source.

System: unresectable or metastatic melanoma
Assay: Single-site correlative study: RECIST v1.1 response to immune checkpoint inhibitor therapy (ICT) in metastatic melanoma patients
Type: in vivo, human
Conditions: for RECIST Category / Change in tumor size (%): individual metastatic melanoma patient, one line per patient; for Change in tumor size (%): RECIST v1.1; for number of patients who responded: monotherapy, metastatic melanoma
Description: Patients and Methods. The study design was a single-site, correlative study of the effects of gut microbiota and metabolites on ICT efficacy in 39 patients. The study was approved by the University of Texas Southwestern Medical Center Institutional Review Board (IRB # STU012016-056). The study was conducted in accordance with the Declaration of Helsinki. The inventors enrolled patients with a histologic diagnosis of unresectable or metastatic melanoma that were scheduled to begin ICT and able to collect stool specimens, store them in a freezer and deliver them to the University of Texas Southwestern Cancer Center facility. In addition, patients had to have measurable disease by Response Evaluation Criteria in Solid Tumors (RECIST) v1.1. Tumor sizes were evaluated within 4 weeks prior to beginning therapy by exams, CT scans, and/or MRIs. […] After informed consent, stool samples were collected and immediately frozen until transferred to the University of Texas Southwestern Medical Center at pretreatment and various times post-therapy. Repeat exams and scans were obtained every 2-3 months. Demographics, antibiotic use, and probiotic exposure were recorded for each patient. Patient response, stable disease and progression were evaluated by RECIST v1.1 criteria as reported.

Substance: nivolumab
- RECIST Category: Response
- Change in tumor size (%): −70%
- number of patients who responded: One

Substance: ipilimumab
- RECIST Category: Response
- Change in tumor size (%): −100%
- number of patients who responded: One

Substance: pembrolizumab
- RECIST Category: Progression; also recorded: Response; also recorded: Stable
- Change in tumor size (%): 53% and 81% and −36% and −68% and 100% (2×) and −27% and −14% and 0% and 125% and 46% and −48% and 131%
- RECIST responders (patients/treated) (metastatic melanoma patients): 3/13
